Test results taken from US7175993B2 (Saladax Biomedical, Inc., priority 2004, dated 2007).

Assays:
Assay type in all cases: binding, mice
[1] = tested on: taxol polyclonal antibodies; experiment: Indirect competitive microtiter plate immunoassay (ELISA), polyclonal antibodies to taxol (pool of antisera); details: for Cross-reactivity relative to taxol: polyclonal antibody pool
Description: (§1) The assay was performed by incubating 50 μL of the analytes to be measured with 50 μL of antibody (produced in example 4) diluted to a titer determined in example 8a. […] Following this incubation the wells of the plate were washed three times with 0.02 M TRIS, 0.9% NaCl, 0.5% Tween-80 and 0.001% Thimerosal, pH 7.8 to remove any material that was not bound. […] To develop a measurable color in the wells, washing was followed by the addition of 100 μL of TMB (TMB Liquid Substrate, Sigma), a substrate for HRP, to develop color in a 10 minute incubation with shaking at room temperature. Following the incubation for color development, 50 μL of stop solution (1.5% sodium fluoride in di H2O) was added to each well to stop the color development and after 10 seconds of shaking the absorbance was determined at 650 nm (Molecular Devices Plate Reader). The amount of antibody in a well was proportional to the absorbance measured and inversely proportional to the amount of taxol in the sample. The absorbance of the color in the wells containing analyte is compared to that with no analyte and a standard curve is generated. […] The cross-reactivity with 6-α-hydroxypaclitaxel was less than 60%. […]
(§2) The assay was performed by incubating 50 μL of the analytes to be measured with 50 μL of antibody (produced in example 4) diluted to a titer determined in example 8a. […] Following this incubation the wells of the plate were washed three times with 0.02 M TRIS, 0.9% NaCl, 0.5% Tween-80 and 0.001% Thimerosal, pH 7.8 to remove any material that was not bound. […] This secondary antibody was capable of binding specifically with murine immunoglobulins producing a colored product when incubated with a substrate. […] To develop a measurable color in the wells, washing was followed by the addition of 100 μL of TMB (TMB Liquid Substrate, Sigma), a substrate for HRP, to develop color in a 10 minute incubation with shaking at room temperature. Following the incubation for color development, 50 μL of stop solution (1.5% sodium fluoride in di H2O) was added to each well to stop the color development and after 10 seconds of shaking the absorbance was determined at 650 nm (Molecular Devices Plate Reader). The amount of antibody in a well was proportional to the absorbance measured and inversely proportional to the amount of taxol in the sample. The absorbance of the color in the wells containing analyte is compared to that with no analyte and a standard curve is generated. […]

[2] = tested on: Monoclonal Ab #2 (monoclonal antibody to taxol); experiment: Indirect competitive microtiter plate immunoassay (ELISA), Monoclonal Ab #2
Description: as §1, §2

[3] = tested on: Monoclonal Ab #1 (monoclonal antibody to taxol); experiment: Indirect competitive microtiter plate immunoassay (ELISA), Monoclonal Ab #1
Description: as §1, §2

[4] = microtiter plate sensitized with Taxol Derivative 5 (example 9a)
[5] = microtiter plate sensitized with Taxol Derivative 8 (example 9b)
[6] = plate sensitized with Taxol Derivative 5
[7] = plate sensitized with Taxol Derivative 8

For CC(=O)O[C@H]1C(=O)[C@@]2(C)[C@H]([C@H](OC(=O)c3ccccc3)[C@]3(O)C[C@H](O)C(C)=C1C3(C)C)[C@]1(OC(C)=O)CO[C@@H]1C[C@@H]2O [Baccatin III], the “Cross-reactivity relative to taxol” value [1, 4] was 0.10%, the “Cross-reactivity relative to taxol” value [1, 5] was 0.10% and the “Cross-reactivity relative to taxol” value [2, 6] was “≦0.19%”. The “Cross-reactivity relative to taxol” value [2, 7] was 0.13%, the “Cross-reactivity relative to taxol” value [3, 6] was 0.13% and the “Cross-reactivity relative to taxol” value [3, 7] was 0.17%.
CC(=O)O[C@@]12CO[C@@H]1C[C@H](O)[C@@]1(C)C(=O)[C@H](O)C3=C(C)[C@@H](OC(=O)[C@H](O)[C@@H](NC(=O)OC(C)(C)C)c4ccccc4)C[C@@](O)([C@@H](OC(=O)c4ccccc4)[C@H]21)C3(C)C [Docetaxel] was tested, and the “Cross-reactivity relative to taxol” value [1, 4] was “≦5%”, the “Cross-reactivity relative to taxol” value [1, 5] was 0.16% and the “Cross-reactivity relative to taxol” value [2, 6] was 101%. The “Cross-reactivity relative to taxol” value [2, 7] was 85%, the “Cross-reactivity relative to taxol” value [3, 6] was 76% and the “Cross-reactivity relative to taxol” value [3, 7] was 77%.
CC(=O)O[C@H]1C(=O)[C@@]2(C)[C@H]([C@H](OC(=O)c3ccccc3)[C@]3(O)C[C@H](OC(=O)[C@H](O)[C@@H](NC(=O)c4ccccc4)c4ccccc4)C(C)=C1C3(C)C)[C@]1(OC(C)=O)CO[C@@H]1C[C@@H]2O [Taxol (Paclitaxel), Taxol] showed an IC50 ([1]; antisera of the four individual mice combined in the pool) of under 0.02 µg/mL.
CC(=O)O[C@H]1C(=O)[C@@]2(C)[C@H]([C@H](OC(=O)c3ccccc3)[C@]3(O)C[C@H](OC(=O)[C@H](O)[C@@H](NC(=O)c4ccccc4)c4ccc(O)cc4)C(C)=C1C3(C)C)[C@]1(OC(C)=O)CO[C@@H]1C[C@@H]2O [3′-p-Hydroxypaclitaxel, 3′-p-hydroxypaclitaxel] was tested, and the “Cross-reactivity relative to taxol” value [1, 4] was “≦10%”, the “Cross-reactivity relative to taxol” value [1, 5] was 0.57% and the “Cross-reactivity relative to taxol” value [2, 6] was “≦2.3%”. For the same compound, the “Cross-reactivity relative to taxol” value [2, 7] was 1.5%, the “Cross-reactivity relative to taxol” value [3, 6] was 5.9% and the “Cross-reactivity relative to taxol” value [3, 7] was 8.1%.
In the case of CC(=O)O[C@H]1C(=O)[C@@]2(C)[C@H]([C@H](OC(=O)c3ccccc3)[C@]3(O)C[C@H](OC(=O)[C@H](O)[C@@H](NC(=O)c4ccccc4)c4ccccc4)C(C)=C1C3(C)C)[C@]1(OC(C)=O)CO[C@@H]1[C@@H](O)[C@@H]2O [6-α-Hydroxypaclitaxel, 6-α-hydroxypaclitaxel], the “Cross-reactivity relative to taxol” value [1, 4] is reported as under 58%, the “Cross-reactivity relative to taxol” value [1, 5] is reported as 1.60% and the “Cross-reactivity relative to taxol” value [2, 6] is reported as “≦4.6%”. The “Cross-reactivity relative to taxol” value [2, 7] was 2.9%, the “Cross-reactivity relative to taxol” value [3, 6] was 5.1% and the “Cross-reactivity relative to taxol” value [3, 7] was 6.5%.
